Results: patent publication US4444753A, “Pharmaceutical composition comprising extract from poison pouch contents of bee” (priority 1979, dated 1984)

Legend:
Escherichia coli TK-16 [1] = assay: Infection-controlling effect at a low immunity (cyclophosphamide-treated mice, Table 16); type: in vivo, Escherichia coli; ICR-strain mice; details: for Number of survivors: 15 mice, cyclophosphamide 100 mg/kg, 7th day
Experimental: Cyclophosphamide was administered intraperitoneally into a group of fifteen ICR-strain mice (male, 4 weeks old) at a dose of 100 mg/kg. On the next day, B-TL 1/10 was administered subcutaneously at the back at a dose of 0.25 ml per mouse once a day repeatedly for 4 days, and a physiological salt solution was administered to the contorl group in the same manner as described above. On the day following the administration of B-TL 1/10, Escherichia coli TK-16 was administered intraperitoneally, and the numbers of the survivors on the 7th day after the inoculation of the bacteria were observed.

[2] = test system: Ehrlich's ascites cancerous cells; assay: Enhancement of carcinostatic activity of Carboquan or Adriamycin to Ehrlich's ascites cancer cells (Table 10); type: in vivo, mouse (ICR-strain); details: 1×10^5 cells, B-TL 1/10 none or 0.25 ml × 7 s.c.
Experimental: (2) Ehrlich's ascites cancerous cells were inoculated intraperitoneally into ICR-strain mice male, 6 weeks old) in an amount of 1×10^5 cells per mouse. B-TL 1/10 was administered subcutaneously at the back at a dose of 0.25 ml per mouse once a day repeatedly from the day of inoculation for 7 days in total. On the day following the inoculation of the cancerous cells, 0.25 mg/kg of Carboquan (CQ) or 5 mg/kg of Adriamycin (AM) was administered intraperitoneally.

[3] = test system: B-16 melanoma cancerous cells; assay: Enhancement of carcinostatic activity of Adriamycin to B-16 melanoma cancerous cells (Table 12); type: in vivo, mouse (BDF1-strain); details: 0.2 g cells i.p.; AM 2 mg/kg i.p., B-TL 1/10 none or 0.25 ml × 7 s.c.
Experimental: Fifteen grams of B-16 melanoma cell cluster was milled by means of a mesh, and then suspended in 15 ml of a physiological salt solution, after which the resulting suspension was transplanted intraperitoneally in BDF1 -strain mice (male, 6 weeks old) in an amount of 0.2 ml per mouse (i.e., 0.2 g of the cells were transplanted per mouse). B-TL 1/10 was administered subcutaneously at the back at a dose of 0.25 ml per mouse once a day for 7 days from the day of transplantation. Adriamycin (AM) was administered intraperitoneally once at a dose of 2 mg/kg on the day following the day of cancer transplantation.

Escherichia coli TK-16 [4] = assay: Antibacterial activity-enhancing effect with Piperacillin in Escherichia coli infection (Table 17); type: in vivo, Escherichia coli; ICR-strain mice; details: for Number of survivors: 2×10^7 cells/mouse, 5 mice, 7th day
Experimental: Escherichia coli TK-16 was administered intraperitoneally into a group of five ICR-strain mice (male, 4 weeks old) in an amount of 2×10^7 cells/mouse, and after one hour, Piperacillin was administered once subcutaneously at the back. B-TL 1/5 was administered subcutaneously at the back at a dose of 0.25 ml per mouse once a day on the 7th, 6th and 5th days before the inoculation of the bacteria, and B-TL 1/10 at a dose of 0.25 ml per mouse once a day on the second and first days before the inoculation of the bacteria. A physiological salt solution was administered to the control group in the same manner as above, and the numbers of the survivors on the 7th day after the inoculation of the bacteria were observed.

L-1210 leukemia cells [5] = assay: Enhancement of carcinostatic activity of Mitomycin C to subcutaneous L-1210 tuberous tumor (Table 7); type: in vivo, mouse (BDF1-strain)
Experimental: (4) L-1210 leukemia cells were inoculated subcutaneously at the armpit of BDF1 -strain mice (male, 7 weeks old) in an amount of 1×10^6 cells per mouse to form a tuberous tumor. B-TL 1/10 was administered subcutaneously at the back at a dose of 0.25 ml per mouse once a day repeatedly from the first day after the inoculation of the cancerous cells for 7 days in total, and Mitomycin C was administered into the tumor at a dose of 4 mg/kg on the first day after the inoculation of the cancerous cells.

[6] = test system: Ehrlich's ascites cancer cells; assay: Enhancement of carcinostatic activity of Mitomycin C to Ehrlich's ascites cancer cells (Table 9); type: in vivo, mouse (ICR-strain); details: 1×10^5 cells; MMC 0.5 mg/kg i.p.
Experimental: (1) Ehrlich's ascites cancer cells were inoculated intraperitoneally into ICR-strain mice (female, 6 weeks old) in an amount of 1×10^5 cells per mouse, and B-TL 1/10 was administered subcutaneously at the back at a dose of 0.25 ml per mouse once a day repeatedly from the third day after the inoculation of the cancerous cells for 7 days in total. Mitomycin C (MMC) was administered intraperitoneally at a dose of 0.5 mg/kg on the first day after the inoculation of the cancerous cells.

[7] = test system: Ehrlich's ascites cancerous cells; assay: Enhancement of carcinostatic activity of Mitomycin C to Ehrlich's ascites cancer cells, B-TL 1/10 pretreatment (Table 11); type: in vivo, mouse (ICR-strain); details: 1×10^5 cells, B-TL 1/10 none or 0.25 ml × 8 s.c.
Experimental: (3) B-TL 1/10 was administered subcutaneously at the back of ICR-strain mice (male, 5 weeks old) at a dose of 0.25 ml per mouse once a day repeatedly for 8 days in total, and on the day following the eighth administration, 1×10^5 Ehrlich's ascites cancerous cells were inoculated intraperitoneally. On the day following the inoculation of the cancerous cells, Mitomycin C (MMC) was administered intraperitoneally at a dose of 0.5 mg/kg or 1 mg/kg.

L-1210 leukemia cells [8] = assay: Enhancement of carcinostatic activity of Mitomycin C to L-1210 leukemia cells, divided B-TL 1/10 dosing (Table 5); type: in vivo, mouse (BDF1-strain); details: MMC 4 mg/kg
Experimental: (§1) (1) L-1210 leukemia cells were inoculated intraperitoneally into BDF1 -strain mice (male, 6 to 7 weeks old) in an amount of 1×10^3, 1×10^4 or 1×10^5 cells per mouse, B-TL 1/10 was administered subcutaneously at the back at a dose of 0.25 ml per mouse once a day repeatedly from the day of inoculation for 7 days in total. Mitomycin C (MMC) was administered intraperitoneally at a dose of 4 mg/kg on the first day after the inoculation of the cancerous cells.
(2) In the same manner as in (1), L-1210 leukemia cells were inoculated and MMC and the B-T were administered. B-TL 1/10 was administered subcutaneously at the back, […], and once on the third, 4th, 5th and 6th days after the inoculation.

L-1210 leukemia cells [9] = assay: Enhancement of carcinostatic activity of Mitomycin C to L-1210 leukemia cells (Table 4); type: in vivo, mouse (BDF1-strain); details: for Number of survivors/Number of tested mice (on the 38th day) / T/C (%): MMC 4 mg/kg i.p., B-TL 1/10 none or 0.25 ml × 7 s.c.
Experimental: as §1

P-388 leukemia cells = assay: Enhancement of carcinostatic activity of Mitomycin C to P-388 leukemia cells (Table 8); type: in vivo, mouse (BDF1-strain); details: 1×10^3 cells; MMC 0.5 mg/kg i.p., B-TL 1/10 none or 0.25 ml × 7 s.c.
Experimental: P-388 leukemia cells were inoculated intraperitoneally into BDF1 -strain mice (male, 7 weeks old) in an amount of 1×10^3 cells per mouse, and B-TL 1/10 was administered subcutaneously at the back at a dose of 0.25 ml per mouse on the day of inoculation and thereafter administered subcutaneously at the back at the same dose once a day repeatedly for 7 days. Mitomycin C (MMC) was administered intraperitoneally at a dose of 0.5 mg/kg on the first day after the inoculation of the P-388 leukemia cells.

L-1210 leukemia cells [10] = assay: Enhancement of carcinostatic activity of Arabinofuranocylcytocine to L-1210 leukemia cells (Table 6); type: in vivo, mouse (BDF1-strain); details: 1×10^3 cells; Ara-C 30 mg/kg × 5 i.p., B-TL 1/10 none or 0.25 ml × 7 s.c.
Experimental: (3) L-1210 leukemia cells were inoculated intraperitoneally into BDF1 -strain mice (male, 6 to 7 weeks old) in an amount of 1×10^3 cells per mouse, and B-TL 1/10 was administered subcutaneously at the back at a dose of 0.25 ml per mouse once a day repeatedly from the day of inoculation for 7 days in total. Arabinofuranocylcytocine (Ara-C) was administered intraperitoneally at a dose of 30 mg/kg once a day from the day following the inoculation of the cancerous cells for 5 days in total.

[11] = 1×10^6 cells s.c., MMC 4 mg/kg into the tumor, B-TL 1/10 none or 0.25 ml × 7 s.c.

## O=P1(N(CCCl)CCCl)NCCCO1 (centres unmarked) [cyclophosphamide, Cyclophosphamide]
Escherichia coli TK-16 [1]; 1.0 × 10^6 cells/mouse
  Number of survivors: 3
Escherichia coli TK-16 [1]; 2.0 × 10^5 cells/mouse
  Number of survivors: 10
Escherichia coli TK-16 [1]; 3.0 × 10^5 cells/mouse
  Number of survivors: 10
Escherichia coli TK-16 [1]; 4.0 × 10^5 cells/mouse
  Number of survivors: 6
Escherichia coli TK-16 [1]; 8.0 × 10^5 cells/mouse
  Number of survivors: 4
Escherichia coli TK-16 [1]; Table 16
  LD50 versus control (in words): significantly lower
Escherichia coli TK-16 [1]; cyclophosphamide 100 mg/kg i.p., without or with B-TL 1/10 0.25 ml s.c. × 4 days
  LD50 (of bacteria): 2.7 × 10^5 cells/mouse
Escherichia coli TK-16 [1]; mice given cyclophosphamide
  infection-controlling effect (in words): the inhibition of the infection-controlling effect was confirmed

## COc1cccc2c1C(=O)c1c(O)c3c(c(O)c1C2=O)C[C@@](O)(C(=O)CO)C[C@@H]3O[C@H]1C[C@H](N)[C@H](O)[C@H](C)O1 [AM, Adriamycin]
[2]; AM 5 mg/kg i.p.
  Number of survivors/Number of tested mice (on the 40th day): 2/4
  T/C (%): 175%
[3]
  Number of survivors/Number of tested mice (on the 35th day): 1/4
  T/C (%): 182%

## COC(COC(N)=O)C1=C(N2CC2)C(=O)C(C)=C(N2CC2)C1=O (racemic) [CQ, Carboquan]
[2]; CQ 0.25 mg/kg i.p.
  Number of survivors/Number of tested mice (on the 40th day): 0/4
  T/C (%): 138%

## CCN1CCN(C(=O)N[C@@H](C(=O)N[C@@H]2C(=O)N3[C@@H]2SC(C)(C)[C@@H]3C(=O)O)c2ccccc2)C(=O)C1=O [Piperacillin]
Escherichia coli TK-16 [4]; Piperacillin 0.156 mg/mouse s.c.
  Number of survivors: 0
Escherichia coli TK-16 [4]; Piperacillin 0.313 mg/mouse s.c.
  Number of survivors: 0
Escherichia coli TK-16 [4]; Piperacillin 0.625 mg/mouse s.c.
  Number of survivors: 1
Escherichia coli TK-16 [4]; Piperacillin 1.25 mg/mouse s.c.
  Number of survivors: 0
Escherichia coli TK-16 [4]; Piperacillin 2.5 mg/mouse s.c.
  Number of survivors: 2
Escherichia coli TK-16 [4]; Piperacillin dose, without or with B-TL 1/5 then B-TL 1/10 pretreatment
  ED50: 3.54 mg/mouse

## CO[C@@]12[C@H](COC(N)=O)C3=C(C(=O)C(C)=C(N)C3=O)N1C[C@@H]1N[C@@H]12 [MMC, Mitomycin C]
L-1210 leukemia cells [5]; [11]
  Number of survivors/Number of tested mice (on the 30th day): 4/5
  T/C (%): 304%
L-1210 leukemia cells [5]; 30th day versus control measured on 8-10th day (control = 100)
  Weight of tumor, Ratio to Control: 156
L-1210 leukemia cells [5]; on the 30th day, 4 survivors among 5, MMC 4 mg/kg, B-TL 1/10 none or 0.25 ml × 7
  Weight of tumor: 808 ± 461 mg
[6]
  Number of survivors/Number of tested mice (on the 40th day): 1/10
  T/C (%): 158%
[7]; MMC 0.5 mg/kg i.p.
  Number of survivors/Number of tested mice (on the 40th day): 1/5
  T/C (%): 157%
[7]; MMC 1 mg/kg i.p.
  Number of survivors/Number of tested mice (on the 40th day): 0/5
  T/C (%): 172%
L-1210 leukemia cells [8]; 1 × 10^3 cells/mouse
  Number of survivors/Number of tested mice (on the 40th day): 1/4
  T/C (%): 187%
L-1210 leukemia cells [8]; 1 × 10^4 cells/mouse
  Number of survivors/Number of tested mice (on the 40th day): 1/4
  T/C (%): 202%
L-1210 leukemia cells [8]; 1 × 10^5 cells/mouse
  Number of survivors/Number of tested mice (on the 40th day): 0/4
  T/C (%): 136%
L-1210 leukemia cells [9]; 1 × 10^3 cells/mouse
  Number of survivors/Number of tested mice (on the 38th day): 4/13
  T/C (%): 192%
L-1210 leukemia cells [9]; 1×10^3 cells, same tendency at 1×10^4 and 1×10^5
  life-prolonging effect (in words): a life-prolonging effect was observed
L-1210 leukemia cells [9]; 1 × 10^4 cells/mouse
  Number of survivors/Number of tested mice (on the 38th day): 2/9
  T/C (%): 188%
L-1210 leukemia cells [9]; 1 × 10^5 cells/mouse
  Number of survivors/Number of tested mice (on the 38th day): 0/4
  T/C (%): 136%
P-388 leukemia cells
  Number of survivors/Number of tested mice (on the 41st day): 0/3
  T/C (%): 101%

## Nc1ccn([C@@H]2O[C@H](CO)[C@@H](O)[C@@H]2O)c(=O)n1 [Ara-C, Arabinofuranocylcytocine]
L-1210 leukemia cells [10]
  Number of survivors/Number of tested mice (on the 30th day): 0/4
  T/C (%): 152%
